Measurements taken from US8440893B2, “Therapeutic agent for rheumatoid arthritis” (St. Marianna University School of Medicine, priority 2006, dated 2013).

Legend:
macrophages = test: Inflammatory cytokine production (ELISA), macrophages; format: cell-based, human; conditions: for Concentration of cytokines produced by macrophage, IL-1β: medium only 8.1; for Concentration of cytokines produced by macrophage, TNF-α: medium only 122
Description: After obtaining informed consent, 50 mL of blood was collected from healthy individuals, and 1% heparin-added blood was acquired. Centrifuge tubes in which this blood was layered on top of a lymphocyte separation liquid were centrifuged at 1500 rpm for 30 minutes to isolate lymphocytes and macrophages individually. The cells were cultured using an RPMI medium supplemented with inactivated fetal bovine serum (FBS, manufactured by TRACE) at 10% of the medium volume, and also with 2 mM L-glutamine, 25 mM HEPES, and 100 units/mL of penicillin and streptomycin, in a CO2 incubator set at 5% CO2+95% air (normoxic conditions) at 37° C. under saturated humidity.
Effects of C60 on the production of inflammatory cytokines in each type of cell were analyzed using the enzyme-linked immunosorbent assay method (ELISA).
Each type of cell that was isolated and cultured to subconfluency by the above method was seeded into a 24-well culture plate at 1×10^5 cells/well. After culturing for 12 hours, the cells were washed with PBS, the medium was exchanged to fresh DMEM containing 10% FBS, and tumor necrosis factor TNF-α was added. The concentration of C60 treatment was 0.1, 1.0, or 10.0 μM, and the concentration of TNF-α treatment was 10.0 ng/mL. Each type of cell was cultured with C60 for 24 hours in the presence or absence of TNF-α, and then the culture solution was collected.
The concentrations of inflammatory cytokines TNF-α and interleukin (IL)-1β in the culture supernatant were determined using a ELISA kit, which is a standard technique currently known in the art. The ELISA was performed by the following standard method: the diluted culture supernatant sample was added into a sensitized plate at 100 μl per well, and the plate was left still for one hour at room temperature (primary reaction). After the primary reaction, the wells were sufficiently washed with PBS using a wash bottle four times or more. Horseradish peroxidase (HRP)-labeled goat anti-rabbit IgG (H+L) antibodies that have been diluted 3,000-folds with 0.1% Tween20-PBS were dispensed into the respective wells at 100 μl each, and the plate was left still for one hour at room temperature (secondary reaction). After the secondary reaction, the wells were washed with PBS in the same manner, and then 0.8 mM TMB (Tetramethylbenzidine) solution was added thereto at 100 μl per well, to effect color development at 30° C. for five to 20 minutes (color reaction). 100 μl of 1.5 N H3PO4 was added to each well to stop the color reaction, and the absorbance at 450 nm was measured using a microtiter plate reader. According to the instructions provided by the manufacturer, the measured concentrations were calibrated using a lyophilized control reagent.
(§1) SOD (final concentration: 10 or 100 μM) or vitamin C (final concentration: 10 or 100 μM) was added to DMEM medium. The level of inflammatory cytokines produced by macrophages and the osteoclast differentiation ability were measured by the methods of Examples 1-3 and 2-2 described above, respectively, and compared to the results obtained with C60 (10 μM) (Table 1).

[1] = test system: osteoclast precursor cells; test: Osteoclast differentiation (TRAP staining of TRAP-positive multinucleated giant cells); format: cell-based; conditions: medium only 78
Description: An osteoclast precursor cell culture kit (Cell Garage Co. Ltd.) was used to observe the effect of C60 on the differentiation of osteoclast precursor cells to mature osteoclasts.
Using the above-mentioned osteoclast precursor cell culture kit, osteoclast precursor cells were cultured on a chamber slide in the presence of osteoclast differentiation-inducing factors. C60 was added to the medium at a final concentration of 0.1, 1.0, or 10.0 μM, and the cells were cultured for seven days. The medium, including various additional factors, was changed to a fresh one every three days. On the seventh day, TRAP-positive multinucleated giant cells, which serve as an index of osteoclast differentiation, were observed by TRAP staining (Cell Garage AK04 Lot: FEM).
The TRAP staining method was carried out as follows. First, after confirming the formation of osteoclasts, the culture solution was removed, and the cells were washed with PBS at 100 μL/well. Next, a fixative solution (kit) was added at 50 μL/well and reacted for five minutes at room temperature. Then, the fixative solution was removed, and the cells were subjected to three washes using 250 μL/well of deionized distilled water (DDW). One vial of chromogenic substrate was dissolved by adding 5 mL of buffer to prepare a color developing solution. The above color developing solution was added at 50 μL/well and then incubated at 37° C. for 20 minutes. After confirming the color development, the color developing solution was removed, and the reaction was stopped using 250 μL/well of DDW. After washing with DDW three times in total, the wells were removed, and the slide was mounted with a water-soluble mounting medium (NUNK 178599 16-well chamber slides were used).
as §1

[2] = Antioxidative ability (kit utilizing the redox reaction of copper); format: biochemical
Description: Various concentrations of C60, SOD, and vitamin C solutions were prepared (solvent: DEME medium, SOD (10, and 100 μM), C60 (1, 10, and 100 μM), vitamin C (100 μM)), and the antioxidative ability of each was determined using a kit for measuring antioxidative ability (OXIS Health Product, Oregon, USA) which utilizes the redox reaction of copper.

Row | Molecule | Concentration of cytokines produced by macrophage, IL-1β (macrophages; added antioxidant 10 μM) [ng/ml/1 × 10^5 cells] | Concentration of cytokines produced by macrophage, TNF-α (macrophages; added antioxidant 10 μM) [ng/ml/1 × 10^5 cells] | Concentration of cytokines produced by macrophage, IL-1β (macrophages; added antioxidant 100 μM) [ng/ml/1 × 10^5 cells] | Concentration of cytokines produced by macrophage, TNF-α (macrophages; added antioxidant 100 μM) [ng/ml/1 × 10^5 cells] | Osteoclast differentiation ([1]; added antioxidant 10 μM) | Osteoclast differentiation ([1]; added antioxidant 100 μM) | ratio to the antioxidative ability of vitamin C (100 μM) ([2]; substance at 10 μM) | ratio to the antioxidative ability of vitamin C (100 μM) ([2]; substance at 100 μM)
1 | O=C1O[C@H]([C@@H](O)CO)C(O)=C1O [Vitamin C, vitamin C] | 6.9 | 116 | 7.5 | 115 | 94 TRAP-positive multinucleated giant cells/well | 82 TRAP-positive multinucleated giant cells/well |  | 
2 | Superoxide dismutase [SOD] | 9.0 | 130 | 7.8 | 106 | 82 TRAP-positive multinucleated giant cells/well | 75 TRAP-positive multinucleated giant cells/well | approximately two-fold | approximately 8 fold
